From patent US9371294B2, “Cycloalkenyl aryl derivatives for CETP inhibitor” (CHONG KUN DANG PHARMACEUTICAL CORP., priority 2011, dated 2016)

molecular target: T1, cholesteryl ester transfer protein (Homo sapiens, UniProt P11597); test: In vitro test for the ability to inhibit cholesteryl ester transfer; format: biochemical; conditions: [3H]-cholesteryl oleate transfer from rHDL-agarose to LDL; human plasma as CETP source; 37° C.; 16-10000 nM, duplicate
T1 construct: As a source of cholesteryl ester transfer protein, plasma from healthy humans was used; from tissue; host or cells: plasma from healthy humans
T1 sequence (P11597 18-493): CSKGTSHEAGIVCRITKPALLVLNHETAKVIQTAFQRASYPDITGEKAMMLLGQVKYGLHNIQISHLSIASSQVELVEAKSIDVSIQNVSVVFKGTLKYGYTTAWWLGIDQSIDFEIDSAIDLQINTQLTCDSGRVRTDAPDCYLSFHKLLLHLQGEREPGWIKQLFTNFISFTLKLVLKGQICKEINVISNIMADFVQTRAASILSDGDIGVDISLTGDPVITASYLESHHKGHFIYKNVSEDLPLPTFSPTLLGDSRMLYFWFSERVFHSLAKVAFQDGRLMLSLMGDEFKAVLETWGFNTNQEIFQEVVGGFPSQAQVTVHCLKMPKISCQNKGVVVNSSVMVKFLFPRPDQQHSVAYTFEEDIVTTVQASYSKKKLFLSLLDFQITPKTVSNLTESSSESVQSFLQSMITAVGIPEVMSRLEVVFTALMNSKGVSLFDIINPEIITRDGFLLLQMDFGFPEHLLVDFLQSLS
Description: In Vitro Test for the Ability to Inhibit Cholesteryl Ester Transfer
1. Preparation of Cholesteryl Ester Donor
In order to prepare a cholesteryl ester donor to be used in the test, a radiolabeled recombinant HDL containing [^3H]-cholesteryl oleate (GE healthcare, TRK886, 3.5 μCi/mg of apoA-1) and apoA-1 was synthesized. Then, rHDL-agarose obtained by immobilizing the recombinant HDL with CNBr-activated Sepharose 4B resin (Amersham Biosciences, Sweden) was used in the test.
2. Cholesteryl Ester Transfer Test
As a source of cholesteryl ester transfer protein, plasma from healthy humans was used, and as cholesteryl ester receptor, LDL from healthy humans was used. Each of test compounds was added to be final concentrations of 16, 80, 400, 2000 and 10000 nM and tested in duplicate. In order to test cholesteryl ester transfer, 20 μl of plasma, 50 μl of LDL (0.25 mg/ml) and 50 μl of rHDL-agarose (0.25 mg/ml) were mixed with each other, and a solution of each test compound was added thereto and reacted thereto at 37° C. Then, the reaction solution was centrifuged at 4° C. for 3 minutes, thereby the reaction was stopped. 150 μl of the supernatant was transferred into a 96-well plate for radioactivity measurement, and the radioactivity thereof was measured with a beta-ray detector.
3. Statistical Processing
The ratio of [^3H]-cholesteryl oleate transferred from HDL to LDL was determined, and based on the determined ratio, the IC50 value of each compound was determined using GraphPad Prism 5.0.

In order of falling IC50:
1. COc1cc(F)c(C(C)C)cc1C1=C(CN2C(=O)O[C@H](c3cc(C(F)(F)F)cc(C(F)(F)F)c3)[C@@H]2C)CN(C(F)(F)F)CC1 [Compound 245, (4S,5R)-5-(3,5-bis(trifluoromethyl)phenyl)-3-((4-(4-fluoro-5-isopropyl-2-methoxyphenyl)-1-(trifluoromethyl)-1,2,5,6-tetrahydropyridin-3-yl)methyl)-4-methyloxazolidin-2-one]  810 nM
2. COc1cc(F)c(C(C)C)cc1C1=C(CN2C(=O)O[C@H](c3cc(C(F)(F)F)cc(C(F)(F)F)c3)[C@@H]2C)CN(C)CC1 [Compound 231, (4S,5R)-5-(3,5-bis(trifluoromethyl)phenyl)-3-((4-(4-fluoro-5-isopropyl-2-methoxyphenyl)-1-methyl-1,2,5,6-tetrahydropyridin-3-yl)methyl)-4-methyloxazolidin-2-one]  700 nM
3. COc1cc(C)c(N(C)S(=O)(=O)C(F)(F)F)cc1C1=C(CN2C(=O)O[C@H](c3cc(C(F)(F)F)cc(C(F)(F)F)c3)[C@@H]2C)CC(C)(C)CC1 [Compound 251, N-(5-(2-(((4S,5R)-5-(3,5-bis(trifluoromethyl)phenyl)-4-methyl-2-oxooxazolidin-3-yl)methyl)-4,4-dimethylcyclohex-1-enyl)-4-methoxy-2-methylphenyl)trifluoro-N-methylmethanesulfonamide]  690 nM
4. COc1cc(F)c(OC(C)C)cc1C1=C(CN2C(=O)O[C@H](c3cc(C(F)(F)F)cc(C(F)(F)F)c3)[C@@H]2C)CC(C)(C)CC1 [Compound 241, (4S,5R)-5-(3,5-bis(trifluoromethyl)phenyl)-3-((2-(4-fluoro-5-isopropoxy-2-methoxyphenyl)-5,5-dimethylcyclohex-1-enyl)methyl)-4-methyloxazolidin-2-one]  390 nM
5. COc1cc(F)c(C(C)C)cc1C1=C(CN2C(=O)O[C@H](c3cc(C(F)(F)F)cc(C(F)(F)F)c3)[C@@H]2C)CN(C(C)C)CC1 [Compound 265, (4S,5R)-5-(3,5-bis(trifluoromethyl)phenyl)-3-((4-(4-fluoro-5-isopropyl-2-methoxyphenyl)-1-isopropyl-1,2,5,6-tetrahydropyridin-3-yl)methyl)-4-methyloxazolidin-2-one]  164 nM
6. COc1cc(C(F)(F)F)c(N(C)C(=O)C(F)(F)F)cc1C1=C(CN2C(=O)O[C@H](c3cc(C(F)(F)F)cc(C(F)(F)F)c3)[C@@H]2C)CC(C)(C)CC1 [Compound 227, N-(5-(2-(((4S,5R)-5-(3,5-bis(trifluoromethyl)phenyl)-4-methyl-2-oxooxazolidin-3-yl)methyl)-4,4-dimethylcyclohex-1-enyl)-4-methoxy-2-(trifluoromethyl)phenyl)-2,2,2-trifluoro-N-methylacetamide]  140 nM
7. COc1cc2c(cc1C1=C(CN3C(=O)O[C@H](c4cc(C(F)(F)F)cc(C(F)(F)F)c4)[C@@H]3C)CC(C)(C)CC1)OCO2 [Compound 223, (4S,5R)-5-(3,5-bis(trifluoromethyl)phenyl)-3-((2-(6-methoxybenzo[d][1,3]dioxol-5-yl)-5,5-dimethylcyclohex-1-enyl)methyl)-4-methyloxazolidin-2-one]  100 nM
8. COc1ccc(N(C)c2nc(C(F)(F)F)cs2)cc1C1=C(CN2C(=O)O[C@H](c3cc(C(F)(F)F)cc(C(F)(F)F)c3)[C@@H]2C)CC(C)(C)CC1 [Compound 212, (4S,5R)-5-(3,5-bis(trifluoromethyl)phenyl)-3-((2-(2-methoxy-5-(methyl(4-(trifluoromethyl)thiazol-2-yl)amino)phenyl)-5,5-dimethylcyclohex-1-enyl)methyl)-4-methyloxazolidin-2-one]  80 nM
9. COc1cc(F)c(OCC(F)(F)F)cc1C1=C(CN2C(=O)O[C@H](c3cc(C(F)(F)F)cc(C(F)(F)F)c3)[C@@H]2C)CC(C)(C)CC1 [Compound 222, (4S,5R)-5-(3,5-bis(trifluoromethyl)phenyl)-3-((2-(4-fluoro-2-methoxy-5-(2,2,2-trifluoroethoxy)phenyl)-5,5-dimethylcyclohex-1-enyl)methyl)-4-methyloxazolidin-2-one]  40 nM
10. COc1cc(F)c(N(C)C(C)=O)cc1C1=C(CN2C(=O)O[C@H](c3cc(C(F)(F)F)cc(C(F)(F)F)c3)[C@@H]2C)CC(C)(C)CC1 [Compound 215, N-(5-(2-(((4S,5R)-5-(3,5-bis(trifluoromethyl)phenyl)-4-methyl-2-oxooxazolidin-3-yl)methyl)-4,4-dimethylcyclohex-1-enyl)-2-fluoro-4-methoxyphenyl)-N-methylacetamide]  20 nM
11. CCc1cc(OC)c(C2=C(CN3C(=O)O[C@H](c4cc(C(F)(F)F)cc(C(F)(F)F)c4)[C@@H]3C)CC(C)(C)CC2)cc1N(C)C(C)=O [Compound 234, N-(5-(2-(((4S,5R)-5-(3,5-bis(trifluoromethyl)phenyl)-4-methyl-2-oxooxazolidin-3-yl)methyl)-4,4-dimethylcyclohex-1-enyl)-2-ethyl-4-methoxyphenyl)-N-methylacetamide]  20 nM
12. COc1ccc(N(C)C(=O)C(C)(C)O)cc1C1=C(CN2C(=O)O[C@H](c3cc(C(F)(F)F)cc(C(F)(F)F)c3)[C@@H]2C)CC(C)(C)CC1 [Compound 244, N-(3-(2-(((4S,5R)-5-(3,5-bis(trifluoromethyl)phenyl)-4-methyl-2-oxooxazolidin-3-yl)methyl)-4,4-dimethylcyclohex-1-enyl)-4-methoxyphenyl)-2-hydroxy-N,2-dimethylpropanamide]  20 nM
13. COc1cc(F)c(C2CC2)cc1C1=C(CN2C(=O)O[C@H](c3cc(C(F)(F)F)cc(C(F)(F)F)c3)[C@@H]2C)CC(C)(C)CC1 [Compound 237, (4S,5R)-5-(3,5-bis(trifluoromethyl)phenyl)-3-((2-(5-cyclopropyl-4-fluoro-2-methoxyphenyl)-5,5-dimethylcyclohex-1-enyl)methyl)-4-methyloxazolidin-2-one]  9 nM
14. COc1ccc(N(C)C(=O)C(C)(C)OC(C)=O)cc1C1=C(CN2C(=O)O[C@H](c3cc(C(F)(F)F)cc(C(F)(F)F)c3)[C@@H]2C)CC(C)(C)CC1 [Compound 243, 1-((3-(2-(((4S,5R)-5-(3,5-bis(trifluoromethyl)phenyl)-4-methyl-2-oxooxazolidin-3-yl)methyl)-4,4-dimethylcyclohex-1-enyl)-4-methoxyphenyl)(methyl)amino)-2-methyl-1-oxopropan-2-yl acetate]  9 nM
15. COc1cc(C(F)(F)F)c(N(C)C(C)=O)cc1C1=C(CN2C(=O)O[C@H](c3cc(C(F)(F)F)cc(C(F)(F)F)c3)[C@@H]2C)CC(C)(C)CC1 [Compound 210, N-(5-(2-(((4S,5R)-5-(3,5-bis(trifluoromethyl)phenyl)-4-methyl-2-oxooxazolidin-3-yl)methyl)-4,4-dimethylcyclohex-1-enyl)-4-methoxy-2-(trifluoromethyl)phenyl)-N-methylacetamide]  8 nM
16. COc1cc(C)c(N(C)C(C)=O)cc1C1=C(CN2C(=O)O[C@H](c3cc(C(F)(F)F)cc(C(F)(F)F)c3)[C@@H]2C)CC(C)(C)CC1 [Compound 249, N-(5-(2-(((4S,5R)-5-(3,5-bis(trifluoromethyl)phenyl)-4-methyl-2-oxooxazolidin-3-yl)methyl)-4,4-dimethylcyclohex-1-enyl)-4-methoxy-2-methylphenyl)-N-methylacetamide]  1 nM
